# “Also recorded” adds a separate entry of the source. Where a name gives a salt, the structure may show the parent alone. Read-outs that look alike come from different tables or passages of the source.
# Experiments:
# [1] = test system: sub-chronic PCP-induced deficits in working memory in female hooded-Lister rats; test: Novel object recognition (NOR) task after sub-chronic PCP treatment; assay type: in vivo, rat
# Description: One of the symptoms of dementia is the progressive development of a cognitive deficit. Certain pre-clinical tests allow the observation of relatively subtle cognitive deficits in the rat. The cognitive deficits observed are seen in behaviours such as working memory deficits which may be measured by recognition tasks such as the novel object recognition (NOR) paradigm. A recognition memory task allows the comparison between presented stimuli and previously stored information. Ennaceur & Delacour, Behav. Brain Res. 31: 47-59 (1988) described the NOR test in rats which was based on the differential exploration of familiar and new objects. The NOR test is a non-rewarded, ethologically relevant paradigm based on the spontaneous exploratory behaviour of rats which measures working memory. Each session consists of two trials. In the first trial, the rats are exposed to two identical objects in an open field. During the second trial, rats are exposed to two dissimilar objects, one familiar object from the first trial and one new object. Object recognition in rats can be measured as the difference in time spent exploring the familiar and the new object. […] The duration of each trial is also important as a preference for the novel object only lasts during the first 1 or 2 minutes, after which time preference diminishes as both objects become familiar and are explored equally.
# The abovementioned rodent model was used to assess the effects of the Isomer A on sub-chronic PCP-induced deficits in working memory using the novel object recognition (NOR) paradigm. The working hypothesis was that both acute and sub-chronic treatment with Isomer A will attenuate the selective working memory deficit induced by sub-chronic PCP as measured in the NOR test paradigm.
# Rats are allowed to habituate to the empty test box and the behavioural test room environment for 1 hour on day 1. Prior to behavioural testing on day 2 rats are given a further 3 minutes habituation.
# Following the 3 minute habituation period, the rats are given two 3 minute trials (T1 and T2) which are separated by a 1 minute inter-trial interval in the home cage during which the objects are changed.
# In this trial, the animals are allowed to explore two identical objects (A1 and A2) for 3 minutes.
# In this trial, the animals explore a familiar object (A) from T1 and a novel object (B) for 3 minutes. The familiar object presented during T2 is a duplicate of the object presented in T1 in order to avoid any olfactory trails.
# The object exploration is defined by animals licking, sniffing or touching the object with the forepaws whilst sniffing, but not leaning against, turning around, standing or sitting on the object. The exploration time (s) of each object (A1, A2, A and B) in each trial are recorded using two stopwatches and the following factors are calculated: • Total exploration time of both objects in the acquisition trial(s). • Total exploration time of both objects in the retention trial(s). • Habituation of exploratory activity. The LMA includes the exploration time, as measured by the number of lines crossed, for both the trials. • Discrimination index, which is calculated as shown below; (time spent exploring novel object−time spent exploring familiar object)÷total time spent in exploring the objects
# Behaviour in all trials was recorded on video for subsequent blind scoring.
# 50 female hooded-Lister rats (Harlan, UK) were used as subjects for these studies. Rats were housed in groups of 5 under standard laboratory conditions under a 12 hr light:dark cycle, lights on at 0700 hr. All testing was carried out in the light phase. Food and water were freely provided. All experiments were conducted in accordance with the Animals Scientific Procedures Act, U.K. 1986 and were approved by the University of Bradford ethical review panel.
# Rats were randomly assigned to two treatment groups and treated with vehicle, n=10 (distilled water, ip) or PCP, n=40 (2 mg/kg, ip) twice daily for 7 days. […]
# [2] = test system: PCP-induced cognitive deficit in the retention phase of the NOR task in female rats; settings: cited from earlier work; for cognitive deficit in the retention phase of the NOR task: female rats
smiles,measurement,setting,value
"c1ccc(C2(N3CCCCC3)CCCCC2)cc1 [PCP, Phencyclidine hydrochloride]",discrimination index (DI) after sub-chronic PCP treatment,"[1]; PCP 2 mg/kg i.p. twice daily for seven days, did not reach statistical significance, FIG. 3",induced a reduction in the discrimination index
same,cognitive deficit in the retention phase of the NOR task,[2]; acute PCP 0.5-2.0 mg/kg ip,produce a selective cognitive deficit
same,cognitive deficit in the retention phase of the NOR task,[2]; sub-chronic PCP 2 mg/kg i.p. twice daily for 7 days followed by 7 days drug-free period,produce a selective cognitive deficit
O=C(CCCN1CCC(O)(c2ccc(Cl)cc2)CC1)c1ccc(F)cc1 [haloperidol],improvement of deficit induced by sub-chronic PCP in NOR paradigm,[2]; haloperidol 0.05-0.075 mg/kg,not
"COc1cc2c(cc1OC)[C@@H]1C[C@@H](O)[C@H](CC(C)C)CN1CC2 (single isomer, unassigned) [Isomer A]",sedation (observation of the behaviour of the rats),[1]; Isomer A 30 mg/kg p.o.,did not appear sedated
same,"improvement of PCP-induced working memory deficit in retention phase of NOR task, statistical significance","[1]; Isomer A 30 mg/kg p.o. (highest dose), FIG. 2",significant at the highest dose
same,"locomotor activity in the test arena (number of lines crossed, T1 and T2)","[1]; Isomer A 30 mg/kg p.o., compared with vehicle control group, FIG. 4",significant effect to reduce locomotor activity
same,discrimination index (DI) in sub-chronic PCP treated rats,"[1]; Isomer A 30 mg/kg p.o., did not reach statistical significance, FIG. 3",improved
same,exploration of two identical objects in the acquisition phase (T1),"[1]; Isomer A 3.0-30 mg/kg p.o., FIG. 1",no effect
same,attenuation of sub-chronic PCP-induced deficit in retention trial (exploration time of familiar vs novel object),"[1]; acute Isomer A 3-30 mg/kg p.o., 30 min before testing, sub-chronic PCP 2 mg/kg i.p. twice daily for 7 days then 7 days washout, FIG. 2",has efficacy to attenuate the sub-chronic PCP-induced deficit; also recorded: selective for the retention phase of the NOR task; also recorded: counteracted the effects of sub-chronic administration of phencyclidine hydrochloride (PCP)
"Cc1nc2n(c(=O)c1CCN1CCC(c3noc4cc(F)ccc34)CC1)CCCC2 [risperidone, reference compound]",attenuation of sub-chronic PCP-induced deficit in retention trial,"[1]; risperidone 0.2 mg/kg i.p., 30 min before testing, FIG. 2",attenuate the sub-chronic PCP-induced deficit
same,discrimination index (DI) in sub-chronic PCP treated rats,"[1]; risperidone 0.2 mg/kg i.p., did not reach statistical significance, FIG. 3",improved

# Source: patent publication US7956065B2, “Pharmaceutical compounds” (Biovail Laboratories International (Barbados) S.R.L., priority 2008, dated 2011)
